Assay results: patent publication US20230113802A1, “COMPOSITION AND METHOD TO PREPARE LONG-ACTING INJECTABLE SUSPENSION CONTAINING MULTIPLE CANCER DRUGS” (University of Washington, priority 2020, published 2023)
Read-outs that look alike come from different tables or passages of the source.

Columns and labels:
[1] = at 25° C.; cited from earlier work
[2] = tested on: HL-60 cells; test: AlamarBlue cell growth inhibition, HL-60; assay type: cell-based; settings: Homo sapiens; for IC50: 120 h, HL-60, five days; for EC50: HL-60, 120 h, HL60 (Bcl-2 +, BTK +), 5 days, read-out: Inhibitory effects (EC50)
Experimental: (§1) K-562 cells (human leukemia) were purchased from ATCC (Manassas, USA). Additional human leukemic cell lines, MOLT-4 and HL-60, were a generous gift from Carrie Cummings at Fred Hutchinson Cancer Research Center (Seattle, USA). All cells were cultured in Gibco RPMI medium 1640 with Gibco 1% 100×Antibiotic-Antimycotic (Thermo Fisher Scientific, Waltham, USA) and 10% fetal bovine serum. Cells were selected for their different protein expression levels of Bruton's Tyrosine Kinase (BTK) and B Cell Lymphoma 2 (Bcl-2); HL-60 cells express both BTK and Bcl-2, while K-562 and MOLT-4 cells only express BTK and Bcl-2, respectively.
(§2) Each cell line was seeded separately into Costar® Black 96-well Assay Plates (Corning USA). Within 1 hr, varying concentrations of individual free drug (ABT-199 or BGB-3111), a combination of both free drugs (w/w 1:1), or a combination of drugs within DcNP's were added to the cells. Following a 5-day incubation, growth of treated cells was compared to untreated cells, quantified using an AlamarBlue Cell Viability Assay (Thermo Fisher Scientific, Waltham, USA) with a PerkinElmer 1420 Multilabel Counter plate reader. Prism graphing software (GraphPad) was used to analyze the absorbance data and to assess relative cell growth.
(§3) The effects of DcNP formulation on the effectiveness of ABT-199 and BGB-3111 to inhibit cells that express Bcl-2 and BTK targets is shown in Table 6. Three immortalized human cell lines were selected based on their expression of Bcl-2 (B-cell lymphoma 2; target of venetoclax) and BTK (Bruton's tyrosine kinase; target of zanubrutinib). Cell lines were seeded in 96-well plates at 75,000 cells per well. In separate sets of wells, venetoclax and zanubrutinib were incubated with the cells for 5 days individually as free drug, together as free drug, and together as the drug combination nanoformulation. An AlamarBlue assay was performed to determine relative inhibition of cell growth due to drug presence.

[3] = cited from earlier work
[4] = tested on: MOLT-4 cells; test: AlamarBlue cell growth inhibition, MOLT-4; assay type: cell-based; settings: Homo sapiens, 120 h; for IC50: MOLT-4, five days, read-out: IC50 (sensitivity); for EC50: Molt-4 (Bcl-2 +, BTK −), 5 days, read-out: Inhibitory effects (EC50)
Experimental: as §1, §2, §3

Row | IC50 ([2]; read-out: IC50) [µg/mL] | EC50 [2] [µg/mL] | IC50 [4] [µg/mL] | EC50 [4] [µg/mL] | IC50 ([2]; read-out: IC50 (sensitivity)) [µg/mL] | SMILES | Water solubility [1] [µg/mL] | log P [3]
1 | 0.00192 | 0.0019 | 1.96 | 2 |  | CC1(C)CCC(CN2CCN(c3ccc(C(=O)NS(=O)(=O)c4ccc(NCC5CCOCC5)c([N+](=O)[O-])c4)c(Oc4cnc5[nH]ccc5c4)c3)CC2)=C(c2ccc(Cl)cc2)C1 [Venetoclax, 4-[4-[[2-(4-chlorophenyl)-4,4-dimethylcyclohexen-1-yl]methyl]piperazin-1-yl]-N-[3-nitro-4-(oxan-4-ylmethylamino)phenyl]sulfonyl-2-(1H-pyrrolo[2,3-b]pyridin-5-yloxy)benzamide] | 0.933 | 6.92
2 |  | 10 | 4 | 4 | 10.3 | C=CC(=O)N1CCC([C@@H]2CCNc3c(C(N)=O)c(-c4ccc(Oc5ccccc5)cc4)nn32)CC1 [Zanubrutinib, (7S)-2-(4-phenoxyphenyl)-7-(1-prop-2-enoylpiperidin-4-yl)-4,5,6,7-tetrahydropyrazolo[1,5-a]pyrimidine-3-carboxamide] | 10.3 | 3.5
